One may read the IC50 as the concentration needed to halve the response being measured. High values mean lower potency, low ones higher potency.

Structures are written as SMILES.

One experiment concerns MKN1 cells. In words: Inhibition of KRas-mediated phosphorylation of ERK (Cisbio HTRF pERK), MKN1 cells. It is filed as cell-based. As to conditions: Homo sapiens, MKN-1, 3 hr compound incubation. In outline: (§1)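 Growth medium is RPMI with 10% FBS, and each well receives 6,000 cells on the first day of the protocol.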
In general terms: Time-resolved FRET reads energy transfer from a long-lived donor to a nearby acceptor.

For another experiment, the target named is KRas G12R (Homo sapiens, UniProt P01116, G12R). The experiment is described as follows: biochemical. The settings on record: Binding to KRas (IC50 nM) G12R, TR-FRET displacement, KRas G12R.
A further experiment deals with ASPC1 cells. The experiment is described as follows: Inhibition of KRas-mediated phosphorylation of ERK (Cisbio HTRF pERK), ASPC1 cells. The format is cell-based. The settings on record: Homo sapiens, ASPC1, 3 h, AsPC-1 cells; 3 hr compound incubation.
The target in the next experiment is KRas G12V (Homo sapiens, UniProt P01116, G12V). The experiment is described as follows: biochemical. As to conditions: Binding to KRas (IC50 nM) G12V, TR-FRET displacement, KRas G12V.
The test system of the next experiment is H727 cells. In words: Inhibition of KRas-mediated phosphorylation of ERK (Cisbio HTRF pERK), H727 cells. It is filed as cell-based. As to conditions: Homo sapiens, NCI-H727, 3 h, 3 hr compound incubation.
In a further experiment the test system is A549 cells. In words: Inhibition of KRas-mediated phosphorylation of ERK (Cisbio HTRF pERK), A549 cells. It is filed as cell-based. The settings on record: Homo sapiens, A549, 3 h, 3 hr compound incubation.
A further experiment has as its system HCT116 cells. The experiment is described as follows: Inhibition of KRas-mediated phosphorylation of ERK (Cisbio HTRF pERK), HCT116 cells. It is filed as cell-based. The settings on record: Homo sapiens, HCT-116, 3 h, 3 hr compound incubation.
In a further experiment the test system is H460 cells. The experiment is described as follows: Inhibition of KRas-mediated phosphorylation of ERK (Cisbio HTRF pERK), H460 cells. The format is cell-based. As to conditions: Homo sapiens, NCI-H460, 3 h, 3 hr compound incubation.
Another experiment concerns PSN1 cells. In words: Inhibition of KRas-mediated phosphorylation of ERK (Cisbio HTRF pERK), PSN1 cells. The format is cell-based. As to conditions: Homo sapiens, PSN1, 3 h, 3 hr compound incubation. In outline: as §1
The test system of the next experiment is H358 cells. The experiment is described as follows: Inhibition of KRas-mediated phosphorylation of ERK (Cisbio HTRF pERK), H358 cells. The format is cell-based. As to conditions: Homo sapiens, NCI-H358, 3 h, 3 hr compound incubation.
Another experiment has as its target KRas G12D (Homo sapiens, UniProt P01116, G12D). In words: biochemical. As to conditions: Binding to KRas (IC50 nM) G12D, TR-FRET displacement, KRas G12D.

KRas G12D, sequence (P01116 1-169 isoform P01116-2 G12D): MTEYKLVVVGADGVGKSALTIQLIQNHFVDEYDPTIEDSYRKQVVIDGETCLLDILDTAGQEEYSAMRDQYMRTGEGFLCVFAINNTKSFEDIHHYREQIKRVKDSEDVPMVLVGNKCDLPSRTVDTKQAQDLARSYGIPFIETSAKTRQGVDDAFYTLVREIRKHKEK
KRas G12V, sequence (P01116 1-169 isoform P01116-2 G12V): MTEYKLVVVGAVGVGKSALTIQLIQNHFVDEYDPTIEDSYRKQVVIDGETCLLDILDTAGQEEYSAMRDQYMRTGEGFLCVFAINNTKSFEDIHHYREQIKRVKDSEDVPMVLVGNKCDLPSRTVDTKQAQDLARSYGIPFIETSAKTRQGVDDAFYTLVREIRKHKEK
KRas G12R, sequence (P01116 1-169 isoform P01116-2 G12R): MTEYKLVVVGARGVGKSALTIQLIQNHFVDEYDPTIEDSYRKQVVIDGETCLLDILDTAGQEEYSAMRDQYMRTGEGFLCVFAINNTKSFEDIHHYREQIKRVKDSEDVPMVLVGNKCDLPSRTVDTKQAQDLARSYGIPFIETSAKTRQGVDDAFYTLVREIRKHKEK

Regarding `CCc1c(F)ccc2cc(O)cc(N3CCc4c(nc(OC[C@@]56CCCN5C[C@H](F)C6)nc4N4CCCn5nc(C(=O)N6C[C@@H]7CCC[C@H]6C7)cc5C4)C3)c12` [Example 615, ((1R,5S)-6-azabicyclo[3.2.1]octan-6-yl)(5-(7-(8-ethyl-7-fluoro-3-hydroxynaphthalen-1-yl)-2-(((2R,7aS)-2-fluorotetrahydro-1H-pyrrolizin-7a(5H)-yl)methoxy)-5,6,7,8-tetrahydropyrido[3,4-d]pyrimidin-4-yl)-5,6,7,8-tetrahydro-4H-pyrazolo[1,5-a][1,4]diazepin-2-yl)methanone], the IC50 is 34.6 nM in the experiment on MKN1 cells; 2 nM at KRas G12R; 7 nM with ASPC1 cells; < 2 nM at KRas G12V; 4 nM with H727 cells; 15 nM in the experiment on A549 cells. Also, the IC50 in the experiment with HCT116 cells came out at 144 nM; in the experiment on H460 cells, 41 nM; in the experiment with PSN1 cells it was 4640 nM; in the experiment with H358 cells, 6 nM; on KRas G12D, 3 nM.
In the case of `CCc1c(F)ccc2cc(O)cc(N3CCc4c(nc(OC[C@@]56CCCN5C[C@H](F)C6)nc4N4CCCn5nc(C(=O)N6C[C@H]7CCC[C@@H]6C7)cc5C4)C3)c12` [Example 616, ((1S,5R)-6-azabicyclo[3.2.1]octan-6-yl)(5-(7-(8-ethyl-7-fluoro-3-hydroxynaphthalen-1-yl)-2-(((2R,7aS)-2-fluorotetrahydro-1H-pyrrolizin-7a(5H)-yl)methoxy)-5,6,7,8-tetrahydropyrido[3,4-d]pyrimidin-4-yl)-5,6,7,8-tetrahydro-4H-pyrazolo[1,5-a][1,4]diazepin-2-yl)methanone], the IC50 is 62.9 nM in the experiment on MKN1 cells; 3 nM at KRas G12R; 17 nM in the experiment on ASPC1 cells; < 2 nM at KRas G12V; 17 nM in the experiment on H727 cells; 24 nM with A549 cells. For the same compound, the IC50 with HCT116 cells is 176 nM; in the experiment with H460 cells it was 48 nM; with PSN1 cells, > 10000 nM; in the experiment with H358 cells, 11 nM; at KRas G12D, 4 nM.
As to `CCc1c(F)ccc2cc(O)cc(N3CCc4c(nc(OC[C@@]56CCCN5C[C@H](F)C6)nc4N4CCCn5nc(C(=O)N6C[C@H]7CO[C@H](C7)C6)cc5C4)C3)c12` [Example 619, ((1S,5R)-6-oxa-3-azabicyclo[3.2.1]octan-3-yl)(5-(7-(8-ethyl-7-fluoro-^3-hydroxynaphthalen-1-yl)-2-(((2R,7aS)-2-fluorotetrahydro-1H-pyrrolizin-7a(5H)-yl)methoxy)-5,6,7,8-tetrahydropyrido[3,4-d]pyrimidin-4-yl)-5,6,7,8-tetrahydro-4H-pyrazolo[1,5-a][1,4]diazepin-2-yl)methanone], the half-inhibitory concentration (IC50) in the experiment with MKN1 cells is 1.9 nM; on KRas G12R, < 2 nM; with ASPC1 cells it was 5 nM; on KRas G12V it was < 2 nM; in the experiment with H727 cells, 7 nM; in the experiment on A549 cells, 10 nM. In addition, the IC50 in the experiment on HCT116 cells is 69 nM; in the experiment on H460 cells, 34 nM; in the experiment on PSN1 cells it was 1420 nM; in the experiment on H358 cells, 1 nM; on KRas G12D, < 2 nM.
Take `CCc1c(F)ccc2cc(O)cc(N3CCc4c(nc(OC[C@@]56CCCN5C[C@H](F)C6)nc4N4CCCn5nc(C(=O)N6C[C@@H]7CO[C@@H](C7)C6)cc5C4)C3)c12` [Example 620, ((1R,5S)-6-oxa-3-azabicyclo[3.2.1]octan-3-yl)(5-(7-(8-ethyl-7-fluoro-3-hydroxynaphthalen-1-yl)-2-(((2R,7aS)-2-fluorotetrahydro-1H-pyrrolizin-7a(5H)-yl)methoxy)-5,6,7,8-tetrahydropyrido[3,4-d]pyrimidin-4-yl)-5,6,7,8-tetrahydro-4H-pyrazolo[1,5-a][1,4]diazepin-2-yl)methanone]: the half-maximal inhibitory concentration (IC50) in the experiment on MKN1 cells was 3.7 nM; on KRas G12R, < 2 nM; in the experiment on ASPC1 cells it was 6 nM; on KRas G12V, < 2 nM; in the experiment with H727 cells, 7 nM; in the experiment with A549 cells it was 24 nM. Also, the IC50 with HCT116 cells was 111 nM; in the experiment on H460 cells, 30 nM; in the experiment on PSN1 cells it was 2670 nM; in the experiment on H358 cells it was 2 nM; at KRas G12D, < 2 nM.
As for `CCc1c(F)ccc2cc(O)cc(N3CCc4c(nc(OC[C@@]56CCCN5C[C@H](F)C6)nc4N4CCCn5nc(C(=O)N6CC[C@H]7C[C@@H]6CO7)cc5C4)C3)c12` [Example 623, ((1R,5S)-6-oxa-2-azabicyclo[3.2.1]octan-2-yl)(5-(7-(8-ethyl-7-fluoro-3-hydroxynaphthalen-1-yl)-2-(((2R,7aS)-2-fluorotetrahydro-1H-pyrrolizin-7a(5H)-yl)methoxy)-5,6,7,8-tetrahydropyrido[3,4-d]pyrimidin-4-yl)-5,6,7,8-tetrahydro-4H-pyrazolo[1,5-a][1,4]diazepin-2-yl)methanone], the IC50 was 1.6 nM in the experiment with MKN1 cells; < 2 nM on KRas G12R; 1 nM in the experiment on ASPC1 cells; < 2 nM on KRas G12V; 2 nM in the experiment on H727 cells; 5 nM with A549 cells. Besides, the IC50 in the experiment on HCT116 cells is 31 nM; with H460 cells, 12 nM; in the experiment with PSN1 cells, 1420 nM; with H358 cells, 1 nM; at KRas G12D it was < 2 nM.
As to `CCc1c(F)ccc2cc(O)cc(N3CCc4c(nc(OC[C@@]56CCCN5C[C@H](F)C6)nc4N4CCCn5nc(C(=O)N6CC[C@@H]7C[C@H]6CO7)cc5C4)C3)c12` [Example 624, ((1 S,5R)-6-oxa-2-azabicyclo[3.2.1]octan-2-yl)(5-(7-(8-ethyl-7-fluoro-3-hydroxynaphthalen-1-yl)-2-(((2R,7aS)-2-fluorotetrahydro-1H-pyrrolizin-7a(5H)-yl)methoxy)-5,6,7,8-tetrahydropyrido[3,4-d]pyrimidin-4-yl)-5,6,7,8-tetrahydro-4H-pyrazolo[1,5-a][1,4]diazepin-2-yl)methanone], the IC50 was 10.5 nM in the experiment with MKN1 cells; < 2 nM at KRas G12R; 4 nM with ASPC1 cells; < 2 nM on KRas G12V; 6 nM with H727 cells; 19 nM with A549 cells. The IC50 was 66 nM in the experiment with HCT116 cells; 22 nM in the experiment with H460 cells; 2470 nM with PSN1 cells; 4 nM with H358 cells; < 2 nM at KRas G12D.
As to `CCc1c(F)ccc2cc(O)cc(N3CCc4c(nc(OC[C@@]56CCCN5C[C@H](F)C6)nc4N4CCCn5nc(C(=O)N(C)C)c(O)c5C4)C3)c12` [Example 628, 5-(7-(8-ethyl-7-fluoro-3-hydroxynaphthalen-1-yl)-2-(((2R,7aS)-2-fluorotetrahydro-1H-pyrrolizin-7a(5H)-yl)methoxy)-5,6,7,8-tetrahydropyrido[3,4-d]pyrimidin-4-yl)-3-hydroxy-N,N-dimethyl-5,6,7,8-tetrahydro-4H-pyrazolo[1,5-a][1,4]diazepine-2-carboxamide], the IC50 in the experiment on MKN1 cells was 1.6 nM; on KRas G12R, < 2 nM; in the experiment with ASPC1 cells, 2 nM; on KRas G12V, < 2 nM; with H727 cells, 13 nM; in the experiment on A549 cells, 7 nM. Besides, the IC50 with HCT116 cells was 78 nM; in the experiment on H460 cells it was 32 nM; in the experiment with PSN1 cells, > 10000 nM; in the experiment on H358 cells, 3 nM; on KRas G12D it was < 2 nM.

Values taken from US20250368649A1, “TETRAHYDROPYRIDOPYRIMIDINE PAN-KRAS INHIBITORS” (Mirati Therapeutics, Inc., priority 2022, published 2025).
